Test results: patent US8476197B2, “Aminopropenoates as fungicides” (priority 2009, dated 2013)
Marks after values point to notes of the source that are not given here.

Conditions: pH 2.3

| SMILES | Log P |
| --- | --- |
| C=CCOc1ncccc1C(NC(C)c1nccs1)=C(C#N)C(=O)OCC (racemic) [Compound 1506] | 2.03^[c]; 2.03^[b] |
| COC(=O)C(C#N)=C(NCc1ncccn1)c1cccnc1Cl [Compound 13] | 1.57^[c]; 1.57^[b] |
| COC(=O)C(C#N)=C(NCC1OCCO1)c1cccnc1Cl [Compound 14] | 1.79 |
| COC(=O)C(C#N)=C(NC(C)c1nccs1)c1sc(C)nc1C(F)(F)F (stereo not shown) [Compound 17] | 2.66 |
| COC(=O)C(C#N)=C(NC(C)c1nccs1)c1sccc1Cl (stereo not shown) [Compound 18] | 2.61 |
| COC(=O)C(C#N)=C(NCC1CCCS1)c1cccnc1Cl (stereo not shown) [Compound 20] | 2.63 |
| COC(=O)C(C#N)=C(NC1CCSC1)c1cccnc1Cl (stereo not shown) [Compound 22] | 2.4 |
| CCOC(=O)C(C#N)=C(NC(C)c1nccs1)c1cccnc1F (stereo not shown) [Compound 79] | 2.47 |

Same assay, conditions: pH 2.7

| SMILES | Log P |
| --- | --- |
| CCOC(=O)C(C#N)=C(NC(C)C1CC1)c1ccnc2ccccc12 (racemic) [Compound 1500] | 3.02^[a] |
| CCOC(=O)C(C#N)=C(NC(c1cncnc1C)C(C)C)c1cccnc1Cl (racemic) [Compound 1538] | 2.28^[a] |
| CCOC(=O)C(C#N)=C(NC(C)c1nc2c(s1)CCCC2)c1cccnc1Cl (racemic) [Compound 1548] | 3.21^[a] |
| CCOC(=O)C(C#N)=C(NC(c1ccccn1)C(F)(F)F)c1cccnc1Cl (racemic) [Compound 1549] | 3.17^[a] |
| CCOC(=O)C(C#N)=C(NC(C)c1nc(C)sc1C)c1cccnc1Cl (racemic) [Compound 1552] | 2.84^[a] |
| CCOC(=O)C(C#N)=C(NC(c1cncnc1C(F)(F)F)C(C)C)c1cccnc1Cl (racemic) [Compound 1557] | 3.55^[a] |
| CCOC(=O)C(C#N)=C(NC(C)c1cc(Cl)ccc1Cl)c1cccnc1Cl (racemic) [Compound 1558] | 4.13^[a] |
| CCOC(=O)C(C#N)=C(NC(C)C1CC1)c1cn(C)nc1C(Cl)Cl (racemic) [Compound 1560] | 3.23^[a] |
| CCOC(=O)C(C#N)=C(NC(C)C1CCC1)c1cn(C)nc1C(Cl)Cl (racemic) [Compound 1561] | 3.67^[a] |
| CC(NC(=C(C#N)C(=O)NCCF)c1cccnc1Cl)c1nccs1 (racemic) [Compound 1563] | 2^[a] |
| CCOC(=O)C(C#N)=C(NC(C)c1ccccn1)c1cn(C)nc1C(Cl)Cl (racemic) [Compound 1565] | 2.7^[a] |
| CCOC(=O)C(C#N)=C(NC(C)c1nc(C)cs1)c1sccc1Br (single isomer, unassigned) [Compound 167] | 3.44^[a] |
| CCOC(=O)C(C#N)=C(NC(C)c1cccc2ccccc12)c1nc(Cl)ccc1Cl (stereo not shown) [Compound 1] | 4.4^[a] |
| CCOC(=O)C(C#N)=C(NC(C)c1cccc2ccccc12)c1ncc(Cl)cc1Cl (stereo not shown) [Compound 2] | 4.65^[a] |
| CCOC(=O)C(C#N)=C(NC(C)c1cccc2ccccc12)c1cnc(Cl)cc1Cl (stereo not shown) [Compound 3] | 4.4^[a] |
| CCOC(=O)C(C#N)=C(NC(C)c1nccs1)c1cccnc1Cl (stereo not shown) [Compound 6] | 2.58 |
| COC(=O)C(C#N)=C(NC(C)c1nccs1)c1sc(C)nc1C(F)(F)F (stereo not shown) [Compound 17] | 2.78 |
| CCOC(=O)C(C#N)=C(NCc1ccccn1)c1cn(C)nc1C(F)F [Compound 32] | 1.94^[a] |
| CCOC(=O)C(C#N)=C(NCc1ccccn1)c1c(C)nn(C)c1F [Compound 39] | 1.91^[a] |
| CCOC(=O)C(C#N)=C(NCc1ccccn1)c1ncc(C(F)(F)F)cc1Cl [Compound 42] | 2.98^[a] |
| COC(=O)C(C#N)=C(NCc1ccccn1)c1cn(C)nc1C(F)F [Compound 58] | 1.63^[a] |
| CCOC(=O)C(C#N)=C(NC(C)c1nc(C)c(C)s1)c1cn(C)nc1C(F)(F)F (stereo not shown) [Compound 64] | 3.48^[a] |
| CCOC(=O)C(C#N)=C(NC(C)Cc1c[nH]c2ccccc12)c1cn(C)nc1C(F)(F)F (stereo not shown) [Compound 65] | 3.73^[a] |
| CCOC(=O)C(C#N)=C(NCc1nccs1)c1cccnc1Cl [Compound 66] | 2.07^[a] |
| COC(=O)C(C#N)=C(NCc1nccs1)c1cn(C)nc1C(F)F [Compound 67] | 1.72^[a] |

| SMILES | Log P |
| --- | --- |
| CCOC(=O)C(C#N)=C(NCc1nccs1)c1cn(C)nc1C(F)F [Compound 68] | 2^[a] |
| CCOC(=O)C(C#N)=C(NC(c1cc2ccccc2s1)C(F)(F)F)c1nsc(Cl)c1Cl (stereo not shown) [Compound 69] | 5.11^[a] |
| CCOC(=O)C(C#N)=C(NCc1ccccn1)c1nsc(Cl)c1Cl [Compound 70] | 2.84^[a] |
| CCOC(=O)C(C#N)=C(NC(C)c1ccccn1)c1nsc(Cl)c1Cl (stereo not shown) [Compound 71] | 3.35^[a] |
| CCOC(=O)C(C#N)=C(NC(c1cc2ccccc2s1)C(F)(F)F)c1ncc(C(F)(F)F)cc1Cl (stereo not shown) [Compound 73] | 4.94^[a] |
| CCOC(=O)C(C#N)=C(NC(C)c1nc(C)c(C)s1)c1conc1C (stereo not shown) [Compound 74] | 3.02^[a] |
| CCOC(=O)C(C#N)=C(NCc1nccs1)c1ncc(C(F)(F)F)cc1Cl [Compound 75] | 2.84^[a] |
| CCOC(=O)C(C#N)=C(NCc1nccs1)c1conc1C [Compound 76] | 2.04^[a] |
| CCOC(=O)C(C#N)=C(NC(C)c1nccs1)c1conc1C (stereo not shown) [Compound 77] | 2.4^[a] |
| CCOC(=O)C(C#N)=C(NC(C)Cc1c[nH]c2ccccc12)c1conc1C (stereo not shown) [Compound 78] | 3.15^[a] |
| CCOC(=O)C(C#N)=C(NCc1nccs1)c1c(C)nn(C)c1F [Compound 80] | 2.01^[a] |
| CCOC(=O)C(C#N)=C(NCc1ccccn1)c1conc1C [Compound 81] | 1.96^[a] |
| CCOC(=O)C(C#N)=C(NC(C)c1ccccn1)c1conc1C (stereo not shown) [Compound 82] | 2.36^[a] |
| COC(=O)C(C#N)=C(NCc1nccs1)c1ncc(C(F)(F)F)cc1Cl [Compound 83] | 2.63^[a] |
| CCOC(=O)C(C#N)=C(NC(C)c1nccs1)c1sccc1Br (stereo not shown) [Compound 85] | 3.13^[a] |
| CCOC(=O)C(C#N)=C(NCc1nccs1)c1c(C)nn(C)c1Cl [Compound 86] | 2.13^[a] |
| CCOC(=O)C(C#N)=C(NCc1ccccn1)c1c(C)nn(C)c1Cl [Compound 87] | 2.02^[a] |
| CCOC(=O)C(C#N)=C(NCc1nccs1)c1sccc1Br [Compound 88] | 2.67^[a] |
| CCOC(=O)C(C#N)=C(NC(C)Cc1c[nH]c2ccccc12)c1sccc1Br (stereo not shown) [Compound 91] | 3.8^[a] |
| CCOC(=O)C(C#N)=C(NC(C)c1nc(C)c(C)s1)c1sccc1Br (stereo not shown) [Compound 92] | 3.8^[a] |
| CCOC(=O)C(C#N)=C(NC(c1cc2ccccc2s1)C(F)(F)F)c1conc1C (stereo not shown) [Compound 93] | 4.24^[a] |
| CCOC(=O)C(C#N)=C(NC(C)c1nc(C)c(C)s1)c1c(C)nn(C)c1Cl (stereo not shown) [Compound 94] | 3.12^[a] |
| CCOC(=O)C(C#N)=C(NCc1nccs1)c1sccc1C(F)(F)F [Compound 95] | 2.82^[a] |
| CCOC(=O)C(C#N)=C(NC(C)c1nccs1)c1sccc1C(F)(F)F (stereo not shown) [Compound 96] | 3.31^[a] |
| CCOC(=O)C(C#N)=C(NC(C)c1nc(C)c(C)s1)c1sccc1C(F)(F)F (stereo not shown) [Compound 97] | 3.92^[a] |

Same assay, conditions: pH 7.5

| SMILES | Log P |
| --- | --- |
| C=CCOc1ncccc1C(NC(C)c1nccs1)=C(C#N)C(=O)OCC (racemic) [Compound 1506] | 2.03^[c]; 2.03^[b] |
| CCOC(=O)C(C#N)=C(NC(C)c1nccs1)c1cccnc1Br (racemic) [Compound 1547] | 2.44 |
| CCOCCOC(=O)C(C#N)=C(NC(C)c1nccs1)c1cccnc1Cl (stereo not shown) [Compound 12] | 2.4 |
| COC(=O)C(C#N)=C(NCc1ncccn1)c1cccnc1Cl [Compound 13] | 1.57^[c]; 1.57^[b] |
| COC(=O)C(C#N)=C(NCC1OCCO1)c1cccnc1Cl [Compound 14] | 1.77 |
| COC(=O)C(C#N)=C(NC(C)c1nc2ccccc2s1)c1cccnc1Cl (stereo not shown) [Compound 15] | 2.95 |
| COC(=O)C(C#N)=C(NCC1CCCO1)c1cccnc1Cl (stereo not shown) [Compound 16] | 2.03 |
| COC(=O)C(C#N)=C(NC(C)c1nccs1)c1sc(C)nc1C(F)(F)F (stereo not shown) [Compound 17] | 2.63 |
| COC(=O)C(C#N)=C(NC(C)c1nccs1)c1sccc1Cl (stereo not shown) [Compound 18] | 2.59 |
| COC(=O)C(C#N)=C(NC(C)c1nc(C)c(C)s1)c1cccnc1Cl (stereo not shown) [Compound 19] | 2.69 |
| COC(=O)C(C#N)=C(NCC1CCCS1)c1cccnc1Cl (stereo not shown) [Compound 20] | 2.47 |
| COC(=O)C(C#N)=C(NC(C)c1nccs1)c1cccnc1Br (stereo not shown) [Compound 21] | 2.12 |
| COC(=O)C(C#N)=C(NC1CCSC1)c1cccnc1Cl (stereo not shown) [Compound 22] | 2.23 |
| CC(C)OC(=O)C(C#N)=C(NC(C)c1nccs1)c1cccnc1Cl (stereo not shown) [Compound 23] | 2.7 |
| CCOC(=O)C(C#N)=C(NC(C)c1nccs1)c1ccc(C)nc1Cl (stereo not shown) [Compound 24] | 2.62 |
| CC(NC(=C(C#N)C(=O)OC(C)(C)C)c1cccnc1Cl)c1nccs1 (stereo not shown) [Compound 25] | 3.07 |
| COC(=O)C(C#N)=C(NC(C)c1sc(C)nc1C)c1cccnc1Cl (stereo not shown) [Compound 26] | 2.17 |
| CC(C)COC(=O)C(C#N)=C(NC(C)c1nccs1)c1cccnc1Cl (stereo not shown) [Compound 28] | 3.13 |
| CC(C)OC(=O)C(C#N)=C(NC(C)c1nc2ccccc2s1)c1cccnc1Cl (stereo not shown) [Compound 29] | 3.63 |
| CC(NC(=C(C#N)C(=O)OCC(F)(F)F)c1cccnc1Cl)c1nccs1 (stereo not shown) [Compound 30] | 2.67 |
| CCOC(=O)C(C#N)=C(NC(C)c1nccs1)c1ccc(Cl)nc1Cl (stereo not shown) [Compound 72] | 3.01 |
| CCOC(=O)C(C#N)=C(NC(C)c1nccs1)c1cccnc1F (stereo not shown) [Compound 79] | 2.32 |
| CCOC(=O)C(C#N)=C(NC(C)Cn1cncn1)c1cccnc1Cl (stereo not shown) [Compound 84] | 1.59 |
| C=CCOC(=O)C(C#N)=C(NC(C)c1nccs1)c1cccnc1Cl (stereo not shown) [Compound 89] | 2.56 |
